Data on 35 compounds can be found in ChEMBL document CHEMBL5442219.

Test [1] concerns the target Beta-3 adrenergic receptor (Homo sapiens) (UniProt P13945). Conditions: Compound concentration 10 µM.
Description: PDSP Primary Binding target: ADRB3 - Compounds are tested at 10 uM concentration, plate are incubated at room temperature in the dark for 90 minutes. Reaction are stopped by vacuum filtration onto 0.3% polyethyleneimine soaked filter mats using Filtermate harvester. Scintilation cocktail is then melted onto microwave-dried filters on a hot plate and the radio activity is counted in Microbia counter.
The target of test [2] is Histamine H2 receptor (Homo sapiens) (UniProt P25021). Conditions: Compound concentration 10 µM.
Sequence of Histamine H2 receptor (Homo sapiens) (P25021 whole entry): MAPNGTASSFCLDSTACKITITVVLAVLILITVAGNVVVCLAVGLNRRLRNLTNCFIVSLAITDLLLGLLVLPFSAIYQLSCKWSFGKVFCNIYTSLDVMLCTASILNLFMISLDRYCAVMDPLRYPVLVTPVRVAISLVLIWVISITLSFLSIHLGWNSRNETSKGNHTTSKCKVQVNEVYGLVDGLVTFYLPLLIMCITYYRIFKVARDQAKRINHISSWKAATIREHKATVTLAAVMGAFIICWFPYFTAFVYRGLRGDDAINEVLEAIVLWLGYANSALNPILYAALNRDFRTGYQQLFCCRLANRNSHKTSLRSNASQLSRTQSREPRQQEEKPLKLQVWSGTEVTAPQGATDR
Description: PDSP Primary Binding target: HRH2 - Compounds are tested at 10 uM concentration, plate are incubated at room temperature in the dark for 90 minutes. Reaction are stopped by vacuum filtration onto 0.3% polyethyleneimine soaked filter mats using Filtermate harvester. Scintilation cocktail is then melted onto microwave-dried filters on a hot plate and the radio activity is counted in Microbia counter.

Sequence of Beta-3 adrenergic receptor (Homo sapiens) (P13945 whole entry, looked up): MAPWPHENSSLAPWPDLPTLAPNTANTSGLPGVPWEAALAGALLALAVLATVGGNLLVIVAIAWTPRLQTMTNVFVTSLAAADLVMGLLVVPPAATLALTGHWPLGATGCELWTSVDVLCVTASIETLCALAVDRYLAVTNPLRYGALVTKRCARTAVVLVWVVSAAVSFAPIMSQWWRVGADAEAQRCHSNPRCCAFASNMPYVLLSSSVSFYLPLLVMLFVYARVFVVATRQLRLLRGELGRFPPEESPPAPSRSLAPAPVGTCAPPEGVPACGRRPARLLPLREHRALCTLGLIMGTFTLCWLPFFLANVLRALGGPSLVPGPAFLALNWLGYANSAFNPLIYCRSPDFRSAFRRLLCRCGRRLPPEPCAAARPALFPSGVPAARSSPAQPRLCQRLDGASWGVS

One may read the inhibition as the change of the read-out against control, counted positive when it falls. In the case of `CCC[C@H](Oc1cc(C)c(-n2cc(C(F)(F)F)cn2)c(C)c1)c1ccc(C(=O)NCCC(=O)O)cc1`, the inhibition in test [1] was 65.4%; in test [2], -8.24%.

In the case of `CC(C)Oc1ccccc1C(=O)Nc1ccccc1C(=O)Nc1cccc(S(=O)(=O)C(F)(F)F)c1`, the results for the inhibition in test [1] and in test [2] were 1.49% and 36%, respectively.

`CN1CCCC(n2nc(Cc3ccc(Cl)cc3)c3ccccc3c2=O)CC1` (centres undefined): the inhibition in test [1] is 61.5%; in test [2] it was 22.8%.

In the case of `CN(C)S(=O)(=O)c1ccc(NC(=S)N2CCC(C(O)(c3ccccc3)c3ccccc3)CC2)cc1`, the inhibition in test [1] was 57.7%; in test [2] it was 18.6%.

As for `CNc1nc(NCc2ccc(NS(C)(=O)=O)cc2Cl)cc(-c2ccccn2)n1`, the inhibition is 15% in test [1] and 18% in test [2].

`Cc1c(P(=S)(c2ccccc2)c2ccccc2)n2ccccc2[n+]1C/C=C/c1ccccc1`: the inhibition was 68.2% in test [1] and 76.4% in test [2].

Regarding `N#Cc1c[nH]c2c(C(=O)N3CCN(CCc4ccc(F)cc4)CC3)cccc12`, the inhibition in test [1] is 22.4%; in test [2], 4.27%.

As to `CC1=C2C[C@H]3[C@@H](CC=C4C[C@@H](O)CC[C@@]43C)[C@@H]2CC[C@]12O[C@@H]1C[C@H](C)CN[C@H]1[C@H]2C`, the inhibition in test [1] is 38.6%; in test [2] it was 20.5%.

`CCCNS(=O)(=O)Nc1ncnc(OCCOc2ncc(Br)cn2)c1-c1ccc(Br)cc1`: in test [1], the inhibition is 42.6%.

Regarding `N#Cc1c(O)nc(SCc2cccc(F)c2F)nc1C1CC1`, the inhibition in test [2] is 6.35%.

Turning to `CC(C)NC(=O)c1ccc(C#Cc2ccncc2)cn1`, the inhibition was 29.8% in test [1] and 25.7% in test [2].

For `N#Cc1ccc(NC(=O)Nc2ccccc2Br)c2nn[nH]c12`, the inhibition was 75% in test [1] and 17.7% in test [2].

As to `FC(F)(F)c1c(N2CCC(c3ccccc3)CC2)ccn2c(CC3CC3)nnc12`, the inhibition in test [1] was 4.3%; in test [2], 12.3%.

`COc1cccc(-c2c(C)n(Cc3c(F)cccc3C(F)(F)F)c(=O)n(C[C@H](NCCCC(=O)O)c3ccccc3)c2=O)c1F`: in test [1], the inhibition is 44.5%.

On to `CS(=O)(=O)NC[C@H]1CC[C@H](Nc2nc3c(s2)CCSc2ccccc2-3)CC1`, for which the inhibition in test [1] is 45.4%; in test [2], -2.3%.

With `O=C(O)C1CN(Cc2ccc(OCc3ccc(Cl)c(Cl)c3)cc2)C1`, the inhibition in test [1] is -2.67%; in test [2] it was 29.6%.

On to `O=C(O)COc1cccc(CN(Cc2ccc(-n3cccn3)cc2)S(=O)(=O)c2cccnc2)c1`, for which, in test [2], the inhibition is 3.71%.

As for `c1cc(CN2CCCNCCNCCCNCC2)ccc1CN1CCCNCCNCCCNCC1`, the inhibition was 34.5% in test [1] and 0.23% in test [2].

In the case of `Cc1nc(C#Cc2ccnc(Cl)c2)c(C)n1-c1ccc(OC(F)(F)F)cc1`, the inhibition was 63% in test [1] and 10.4% in test [2].

Regarding `CO[C@@H]1COCC[C@@H]1N[C@@H]1CC[C@@](C(=O)N2CCc3ncc(C(F)(F)F)cc3C2)(C(C)C)C1`, the values for the inhibition in test [1] and in test [2] were 47.5% and 14.9%, respectively.

Take `O=C(O)C1CN(Cc2ccc(-c3nc4cc(Cc5ccccc5F)ccc4s3)c(F)c2)C1`: the inhibition in test [1] was -2.08%; in test [2], 1.06%.

Regarding `Cc1nc(-c2ccc(C(F)(F)F)cc2)sc1COc1ccc([C@H](CC(=O)O)c2ccon2)cc1`, the inhibition in test [2] was 15.9%.

Consider `Cc1c(F)cccc1NC(=O)Nc1ccc(Cl)c(S(=O)(=O)[C@H]2CCCNC2)c1O`, for which the inhibition was 17.8% in test [1] and 18.3% in test [2].

Take `Cc1ccc2c(c1)c1c(n2CCc2ccc(C)nc2)CCN(C)C1`: the inhibition in test [1] was 0.23%; in test [2], 96.5%.

Take `Cc1cn2cc(CC(=O)N3CCC4(CC3)CN(Cc3ccc(-n5nccn5)cc3Cl)C4)nc2s1`: the inhibition is 25.6% in test [1] and 60.1% in test [2].

Turning to `O=C1O[C@]2(CC[C@H](C(=O)Nc3ccn(-c4ccccc4F)n3)CC2)c2cnccc21`, the inhibition in test [1] is 3.84%; in test [2], 2.76%.

As to `N[C@H](C(=O)O)c1ccc(C(=O)O)c(C(=O)O)c1`, the inhibition in test [1] is 18.2%; in test [2] it was -1.13%.

`Clc1ccc(CCCOCCCN2CCCCC2)cc1`: the inhibition in test [1] was 1.84%; in test [2], 33%.

With `O=C(O)CC1CCC2(CC1)CCN(c1cc(OC(F)(F)F)ccc1Cl)CC2`, the inhibition in test [1] was 17.5%; in test [2] it was -4.3%.

`Cc1cc(C)cc(-c2cnc3cc(Cl)c(-c4cccc(O)c4)cc3c2OCCCN)c1`: the values for the inhibition in test [1] and in test [2] were 99.4% and 81.6%, respectively.

As to `FC(F)(F)c1cccc(-c2noc(-c3cc(-c4ccccc4)c(C(F)(F)F)s3)n2)c1`, the inhibition in test [1] was 23.6%; in test [2], 16.3%.

With `CCOC(=O)c1cc(C#N)c(N2CCC(C(=O)NS(=O)(=O)Cc3ccccc3)CC2)nc1C`, the inhibition in test [1] is 21.2%; in test [2], 17.2%.

Consider `C[C@]1(C(=O)N(CCCC(=O)O)Cc2cccc(Cl)c2)CCN1C(=O)c1csc2ccccc12`, for which the inhibition in test [1] is -0.98%; in test [2] it was 19.3%.

With `COc1ccc(CNC(=O)c2cc(-c3cncc(Cl)c3)cnc2-c2ccccn2)nc1OC`, in test [2], the inhibition is -5.76%.

For the compound `Cc1cc([C@@H](C)Nc2cccc(-c3cc(C)c(C(=O)N[C@@H](C)C(=O)O)c(C)c3)c2)ccc1Cl`, the inhibition was 70.7% in test [1] and 22.5% in test [2].
